The source of these data is patent US20250064061A1, “METHOD FOR CONTROLLING NOXIOUS ARTHROPODS” (SUMITOMO CHEMICAL COMPANY, LIMITED, priority 2021, published 2025).

Molecules are shown by their SMILES. A value given as a limit tells only on which side of the number the result lay.

The test system of assay [1] is strain of German cockroaches that is susceptible to insecticides. The experiment in a line: Topical application test on male adult German cockroach, insecticide-susceptible strain. In kind it is in vivo. Conditions: 1 μL acetone solution applied to ventral surface of thorax of male adult; mortality after 4 days; Probit method. How it is done: (§1) An acetone solution comprising a prescribed concentration of each of permethrin, deltamethrin, fipronil, indoxacarb, fluxametamide, broflanilide, nicofluprole, cyproflanilide, or isocycloseram was prepared, and 1 μL of the acetone solution was applied to a ventral surface of thorax of a male adult of German cockroach. Two strains of German cockroaches, i.e., the strain of German cockroaches that is susceptible to insecticides and the strain of German cockroaches that is resistant to multiple insecticides, were used. The strain of German cockroaches that is resistant to multiple insecticides is highly resistant to pyrethroid compounds, phenylpyrazole compounds, and oxadiazine compounds. As the resistance mechanism, the strain has the L993F mutation of voltage-dependent sodium channel resulting in pyrethroid resistance, the A302S mutation of GABAergic chloride ion channel resulting in dieldrin resistance, and enhanced metabolic detoxification activities. The application concentrations were three or more concentrations resulting in 0 to 100% of mortality of insects (comprising one or more concentrations resulting in less than 50% mortality of insects, and one or more concentrations resulting in more than 50% mortality of insects), and the number of test insects per concentration was ten in duplicate. After 4 days, the number of dead German cockroach(es) was investigated, and LD50 value was calculated by the Probit method. The mortalities of insects of 0% and 100% were corrected by the method of Miller and Tainter represented by the following formula (1), and corrected mortalities of insects were used when LD50 values were calculated. The resistance ratio was calculated according to the following formula (2) by using the obtained LD50 values. In this test, a dead insect refers to an insect in which the action was completely stopped.

The subject of assay [2] is strain of German cockroaches that is resistant to multiple insecticides. The experiment in a line: Topical application test on male adult German cockroach, multiple-insecticide-resistant strain. It is filed as in vivo. As to conditions: for LD50 Resistant: 1 μL acetone solution applied to ventral surface of thorax of male adult, mortality after 4 days, Probit method, strain with L993F sodium channel and A302S GABAergic chloride channel mutations and enhanced metabolic detoxification; for Resistance ratio: calculated by formula (2) from the LD50 values of the resistant and susceptible strains; for Control of harmful arthropods showing high resistance to permethrin, deltamethrin, fipronil, indoxacarb and fluxametamide: conclusion drawn from Table 1. On the procedure:
as §1

Take `CN(C(=O)c1ccccc1)c1cccc(C(=O)Nc2c(Br)cc(C(F)(C(F)(F)F)C(F)(F)F)cc2C(F)(F)F)c1F` [Broflanilide, broflanilide]: in assay [1], the “LD50 Susceptible” value turned out to be 0.0093 μg/insect. Besides, in assay [2], the “LD50 Resistant” value came out at 0.021 μg/insect; the Resistance ratio is 2.3; the “Control of harmful arthropods showing high resistance to permethrin, deltamethrin, fipronil, indoxacarb and fluxametamide” value is recorded as “can effectively control”.

For the compound `O=C(Nc1c(Br)cc(C(F)(C(F)(F)F)C(F)(F)F)cc1C(F)(F)F)c1cccc(N(CC2CC2)C(=O)c2ccc(F)cc2)c1F` [Cyproflanilide, cyproflanilide], the “LD50 Susceptible” value in assay [1] was determined as 0.028 μg/insect. For the same compound, in assay [2], the “LD50 Resistant” value was determined as 0.035 μg/insect; the Resistance ratio is 1.2; the “Control of harmful arthropods showing high resistance to permethrin, deltamethrin, fipronil, indoxacarb and fluxametamide” value is reported as “can effectively control”.

`CC1(C)[C@H](C(=O)O[C@H](C#N)c2cccc(Oc3ccccc3)c2)[C@@H]1C=C(Br)Br` [Deltamethrin, deltamethrin]: in assay [1], the “LD50 Susceptible” value is 0.016 μg/insect. Also, in assay [2], the “LD50 Resistant” value was determined as 0.68 μg/insect and the Resistance ratio is reported as 43.

On to `N#Cc1nn(-c2c(Cl)cc(C(F)(F)F)cc2Cl)c(N)c1[S+]([O-])C(F)(F)F` (stereo not shown) [Fipronil, fipronil], for which the “LD50 Susceptible” value in assay [1] is recorded as 0.0034 μg/insect. In addition, in assay [2], the “LD50 Resistant” value amounted to 0.14 μg/insect and the Resistance ratio is recorded as 41.

In the case of `CON=CNC(=O)c1ccc(C2=NOC(c3cc(Cl)cc(Cl)c3)(C(F)(F)F)C2)cc1C` (stereo not shown) [Fluxametamide, fluxametamide], the “LD50 Susceptible” value in assay [1] is on record as 0.059 μg/insect. Further, in assay [2], the “LD50 Resistant” value is given as 2.7 μg/insect and the Resistance ratio is listed as 46.

Consider `COC(=O)N(C(=O)N1CO[C@@]2(C(=O)OC)Cc3cc(Cl)ccc3C2=N1)c1ccc(OC(F)(F)F)cc1` [Indoxacarb, indoxacarb], for which the “LD50 Susceptible” value in assay [1] is 0.25 μg/insect. In assay [2], the “LD50 Resistant” value is >50 μg/insect and the Resistance ratio is >200.

As for `CCN1OCC(NC(=O)c2ccc(C3=NOC(c4cc(Cl)c(F)c(Cl)c4)(C(F)(F)F)C3)cc2C)C1=O` (stereo not shown) [Isocycloseram, isocycloseram], the “LD50 Susceptible” value in assay [1] came out at 0.059 μg/insect. In assay [2], the “LD50 Resistant” value was 0.10 μg/insect; the Resistance ratio is reported as 1.7; the “Control of harmful arthropods showing high resistance to permethrin, deltamethrin, fipronil, indoxacarb and fluxametamide” value is reported as “can effectively control”.

As for `CN(C(=O)c1cc(-c2cnn(-c3c(Cl)cc(C(F)(C(F)(F)F)C(F)(F)F)cc3Cl)c2)cnc1Cl)C1CC1` [Nicofluprole, nicofluprole], the “LD50 Susceptible” value in assay [1] turned out to be 0.0027 μg/insect. For the same compound, in assay [2], the “LD50 Resistant” value came to 0.0065 μg/insect; the Resistance ratio is reported as 2.4; the “Control of harmful arthropods showing high resistance to permethrin, deltamethrin, fipronil, indoxacarb and fluxametamide” value is reported as “can effectively control”.

`CC1(C)C(C=C(Cl)Cl)C1C(=O)OCc1cccc(Oc2ccccc2)c1` (stereo not shown) [Permethrin, permethrin]: the “LD50 Susceptible” value in assay [1] is recorded as 0.28 μg/insect. In addition, in assay [2], the “LD50 Resistant” value was >50 μg/insect and the Resistance ratio is reported as >180.
